From patent US12668599B2, “Heterobifunctional compounds and methods of treating disease” (Halda Therapeutics OpCo, Inc., priority 2023, dated 2026) come the findings set out here.

Experiment [1] relates to T-Rex 293 cell line SC3 cells having increased expression of androgen receptor protein due to exposure to doxycycline. In words: Cellular growth inhibition, T-Rex 293 SC3 cells with doxycycline-induced androgen receptor (CellTiter-Glo 2.0, 72 hours). The format is cell-based. Particulars: T-Rex 293 SC3 cells with 10 ng/ml doxycycline (increased androgen receptor expression), 72 hours, CellTiter-Glo 2.0.

The test system of the next experiment is VCaP cells. In words: Cellular growth inhibition assay for VCaP cells (CellTiter-Glo 2.0, 72 hours). The note with it: CellTiter-Glo 2.0. The format is cell-based, human.
Experiment [2] relates to T-Rex 293 cell line SC3 cells lacking increased expression of androgen receptor protein. Description: Cellular growth inhibition, T-Rex 293 SC3 cells without doxycycline (CellTiter-Glo 2.0, 72 hours). Format: cell-based. Particulars: T-Rex 293 SC3 cells not exposed to doxycycline (no increased androgen receptor expression). In general terms: ATP-based viability assays read luminescence as a measure of living cells.

Structures are written as SMILES.

Broadly, the GI50 is the concentration that inhibits growth by half. A higher GI50 goes with lower sensitivity of the cells. For `COc1cc(O[C@H]2CC[C@H](NC(=O)c3ccc(N4CCC5(CCC(c6ccc(C7=N[C@@H](C)c8nnc(C)n8-c8sc(C)c(C)c87)c(F)c6)CC5)C4)nn3)CC2)ccc1C#N` (single isomer, unassigned) [Compound I-58], the GI50 in experiment [1] is less than 500 nM; with VCaP cells (Homo sapiens, VCaP, 72 h), less than 500 nM; in experiment [2] (72 h), less than 500 nM.

Regarding `COc1cc(O[C@H]2CC[C@H](NC(=O)c3ccc(N4CCC5(CCC(c6ccc(C7=N[C@@H](C)c8nnc(C)n8-c8sc(C)c(C)c87)cc6C(C)C)CC5)C4)nn3)CC2)ccc1C#N` (stereo partly drawn) [Compound I-122], the GI50 in experiment [1] was less than 500 nM; in the experiment on VCaP cells (72 hours), 500 to 1500 nM; in experiment [2] it was 1500 to 3000 nM.

Take `COc1cc(O[C@H]2C(C)(C)[C@H](NC(=O)c3cnc(N4CCC5(CC4)CC(Oc4ccc(C6=N[C@H](Cc7ncco7)c7nnc(C)n7-c7sc(C)c(C)c76)cc4)C5)nc3)C2(C)C)ccc1C#N` [II-14]: the GI50 was less than 500 nM in experiment [1]; greater than 3000 nM in the experiment on VCaP cells (Homo sapiens, VCaP, 72 h); greater than 3000 nM in experiment [2] (72 h).

As for `COc1cc(O[C@H]2CC[C@H](NC(=O)c3ccc(N4CCC5(CCC(c6ccc(C7=N[C@@H](C)c8nnc(C)n8-c8sc(C)c(C)c87)c(OC)c6)CC5)C4)nn3)CC2)ccc1C#N` (stereo partly drawn) [Compound I-68], the GI50 in experiment [1] is less than 500 nM; with VCaP cells (Homo sapiens, VCaP, 72 h), less than 500 nM; in experiment [2] (72 h) it was less than 500 nM.

Consider `COc1cc(O[C@H]2CC[C@H](NC(=O)c3ccc(N4C[C@]5(F)CN(c6ccc(C7=N[C@@H](C)c8nnc(C)n8-c8sc(C)c(C)c87)cc6)C[C@]5(F)C4)nn3)CC2)ccc1C#N` [Compound I-91], for which the GI50 was less than 500 nM in experiment [1]; less than 500 nM with VCaP cells (Homo sapiens, VCaP, 72 h); less than 500 nM in experiment [2] (72 h).

Turning to `COc1cc(O[C@H]2CC[C@H](NC(=O)c3ccc(N4CC5(CC(C#Cc6ccc(C7=N[C@@H](C)c8nnc(C)n8-c8sc(C)c(C)c87)cc6)C5)C4)nn3)CC2)ccc1C#N` [Compound I-40, N-[4-(4-cyano-3-methoxy-phenoxy)cyclohexyl]-6-[6-[2-[4-[(9S)-4,5,9,13-tetramethyl-3-thia-1,8,11,12-tetrazatricyclo[8.3.0.0^2,6]trideca-2 (6),4,7,10,12-pentaen-7-yl]phenyl]ethynyl]-2-azaspiro[3.3]heptan-2-yl]pyridazine-3-carboxamide], the GI50 in experiment [1] is less than 500 nM; with VCaP cells (Homo sapiens, VCaP, 72 h) it was less than 500 nM; in experiment [2] (72 h) it was less than 500 nM.

As for `COc1cc(O[C@H]2CC[C@H](NC(=O)c3ccc(N4CCC5(CCC(Oc6ccc(C7=N[C@@H](C)c8nnc(C)n8-c8sc(C)c(C)c87)cc6)C5)C4)nn3)CC2)ccc1C#N` (stereo partly drawn) [Compound I-50], the 50% growth inhibitory concentration (GI50) in experiment [1] is less than 500 nM; with VCaP cells (Homo sapiens, VCaP, 72 h), less than 500 nM; in experiment [2] (72 h), less than 500 nM.

For `COc1cc(O[C@H]2CC[C@H](NC(=O)c3ccc(N4CCC5(CCN(c6ccc(C7=NC(Cc8ncco8)c8nnc(C)n8-c8sc(C)c(C)c87)c(C(F)(F)F)c6)CC5)C4)nn3)CC2)ccc1C#N` (stereo partly drawn) [Compound I-136], the figures for the GI50 (in experiment [1]; in the experiment on VCaP cells (72 hours); in experiment [2] (72 h)) were less than 500 nM, greater than 3000 nM and greater than 3000 nM, respectively.

For the compound `COc1cc(O[C@H]2CC[C@H](NC(=O)c3ccc(N4CCC5(CCC(c6ccc(C7=N[C@@H](Cc8ncco8)c8nnc(C)n8-c8sc(C)c(C)c87)cc6)CC5)C4)nn3)CC2)ccc1C#N` (stereo partly drawn) [Compound I-100, N-((1r,4r)-4-(4-cyano-3-methoxyphenoxy)cyclohexyl)-6-(8-(4-((S)-2,3,9-trimethyl-6-(oxazol-2-ylmethyl)-6H-thieno[3,2-f][1,2,4]triazolo[4,3-a][1,4]diazepin-4-yl)phenyl)-2-azaspiro[4.5]decan-2-yl) pyridazine-3-carboxamide], the GI50 in experiment [1] is less than 500 nM; in the experiment on VCaP cells (Homo sapiens, VCaP, 72 h) it was less than 500 nM; in experiment [2] (72 h), less than 500 nM.

On to `COc1cc(O[C@H]2CC[C@H](NC(=O)c3ccc(N4CCC5(CCN(c6ccc(C7=N[C@@H](C)c8nnc(C)n8-c8sc(C)c(C)c87)c(F)c6)C5)C4)nn3)CC2)ccc1C#N` (stereo partly drawn) [Compound I-92], for which the GI50 is less than 500 nM in experiment [1]; less than 500 nM in the experiment on VCaP cells (Homo sapiens, VCaP, 72 h); less than 500 nM in experiment [2] (72 h).

As for `COc1cc(O[C@H]2CC[C@H](NC(=O)c3ccc(N4CC(F)(F)C5(CCN(c6ccc(C7=N[C@@H](C)c8nnc(C)n8-c8sc(C)c(C)c87)cc6)CC5)C4)nn3)CC2)ccc1C#N` [Compound I-107, N-[4-(4-cyano-3-methoxy-phenoxy)cyclohexyl]-6-[4,4-difluoro-8-[4-[(9S)-4,5,9,13-tetramethyl-3-thia-1,8,11,12-tetrazatricyclo[8.3.0.0^2,6]trideca-2 (6),4,7,10,12-pentaen-7-yl]phenyl]-2,8-diazaspiro[4.5]decan-2-yl]pyridazine-3-carboxamide], the GI50 is less than 500 nM in experiment [1]; less than 500 nM with VCaP cells (Homo sapiens, VCaP, 72 h); less than 500 nM in experiment [2] (72 h).

Consider `COCC[C@@H]1N=C(c2ccc(C3CCC4(CC3)CCN(c3ccc(C(=O)NC5CCC(Oc6ccc(C#N)c(OC(F)(F)F)c6)CC5)nn3)C4)cc2)c2c(sc(C)c2C)-n2c(C)nnc21` (stereo partly drawn) [Compound I-4, N-[4-[4-cyano-3-(trifluoromethoxy)phenoxy]cyclohexyl]-6-[8-[4-[(9S)-9-(2-methoxyethyl)-4,5,13-trimethyl-3-thia-1,8,11,12-tetrazatricyclo[8.3.0.0^2,6]trideca-2 (6),4,7,10,12-pentaen-7-yl]phenyl]-2-azaspiro[4.5]decan-2-yl]pyridazine-3-carboxamide], for which the GI50 was less than 500 nM in experiment [1]; less than 500 nM in the experiment on VCaP cells (Homo sapiens, VCaP, 72 h); 1500 to 3000 nM in experiment [2] (72 h).

As to `COc1cc(O[C@H]2CC[C@H](NC(=O)c3ccc(N4CCC5(CCC(c6ccc(C7=N[C@@H](C)c8nnc(C)n8-c8sc(C)c(C)c87)cc6)CC5)C4)nn3)CC2)ccc1C#N` (stereo partly drawn) [Compound I-20], the GI50 (in experiment [1]; with VCaP cells (72 hours); in experiment [2]) was less than 500 nM throughout.

Consider `COc1cc(O[C@H]2CC[C@H](NC(=O)c3ccc(N4CCC5(CCN(c6ccc(C7=N[C@@H](C)c8nnc(C)n8-c8sc(C)c(C)c87)cc6C)CC5)C4)nn3)CC2)ccc1C#N` [Compound I-46, N-[4-(4-cyano-3-methoxy-phenoxy)cyclohexyl]-6-[8-[2-methyl-4-[(9S)-4,5,9,13-tetramethyl-3-thia-1,8,11,12-tetrazatricyclo[8.3.0.0^2,6]trideca-2 (6),4,7,10,12-pentaen-7-yl]phenyl]-2,8-diazaspiro[4.5]decan-2-yl]pyridazine-3-carboxamide], for which the 50% growth inhibitory concentration (GI50) in experiment [1] was less than 500 nM; with VCaP cells (Homo sapiens, VCaP, 72 h) it was less than 500 nM; in experiment [2] (72 h), less than 500 nM.

Consider `COc1cc(O[C@H]2CC[C@H](NC(=O)c3ccc(N4C[C@]5(C)CN(c6ccc(C7=N[C@@H](C)c8nnc(C)n8-c8sc(C)c(C)c87)cc6)C[C@]5(C)C4)nn3)CC2)ccc1C#N` [Compound I-48], for which the GI50 is less than 500 nM in experiment [1]; less than 500 nM in the experiment with VCaP cells (Homo sapiens, VCaP, 72 h); less than 500 nM in experiment [2] (72 h).

`COc1cc(O[C@H]2CC[C@H](NC(=O)c3ccc(N4CCC5(CCC(c6ccc(C7=N[C@@H](C)c8nnc(C)n8-c8sc(C)c(C)c87)cc6)CC5)C4)cn3)CC2)ccc1C#N` (stereo partly drawn) [Compound I-53]: the GI50 in experiment [1] was less than 500 nM; in the experiment with VCaP cells (Homo sapiens, VCaP, 72 h), less than 500 nM; in experiment [2] (72 h), less than 500 nM.
